# Key:
# Test in all cases: Growth inhibition (GI50), Cell Titer Blue
# Format in all cases: cell-based
# GRANTA-519 = settings: Homo sapiens; GRANTA-519, Mantle Cell Lymphoma; 96 hrs post-treatment
# Experimental: (§1) Cell lines were cultured in RPMI-1640 medium (Thermo Scientific) supplemented with 10% heat inactivated FBS and penicillin-streptomycin at 37°C under humidified conditions and 5% CO2. All cell lines tested negative for mycoplasma. […] Compounds were added 24 hrs post-plating at the indicated concentrations. Cell counts were determined from duplicate wells 96 hrs post-treatment using the Cell Titer Blue assay in conjunction with the GloMax plate reader (Promega).
# AsPc1 = settings: Homo sapiens; AsPc1, Pancreatic Cancer; 96 hrs post-treatment
# Experimental: as §1
# K562 = settings: Homo sapiens; K562, Chronic Myeloid Leukemia; 96 hrs post-treatment
# Experimental: as §1
# RS-4-11 = settings: Homo sapiens, RS4-11; RS-4-11, Acute Lymphoblastic Leukemia; 96 hrs post-treatment
# Experimental: as §1
# HEL = settings: Homo sapiens, Erythroleukemia, 96 hrs post-treatment
# Experimental: as §1
# 22Rv1 = settings: Homo sapiens; 22Rv1, Prostate Cancer; 96 hrs post-treatment
# Experimental: as §1
# MCF-7 = settings: Homo sapiens, MCF7; MCF-7, Breast Cancer; 96 hrs post-treatment
# Experimental: as §1
smiles,measurement,setting,value
CC(=O)Oc1ccc(/C=C2\Sc3ccc(F)cc3NC2=O)cc1[N+](=O)[O-] [ON108110],GI50,GRANTA-519,150 nM
same,GI50,AsPc1,2800 nM
same,GI50,K562,2200 nM
same,GI50,RS-4-11,240 nM
same,GI50,HEL,900 nM
same,GI50,22Rv1,> 5000 nM
same,GI50,MCF-7,800 nM

# Source: publication PMC6340882, “Targeting protein kinase CK2 and CDK4/6 pathways with a multi-kinase inhibitor ON108110 suppresses pro-survival signaling and growth in mantle cell lymphoma and T-acute lymphoblastic leukemia” (Oncotarget, 2018)
